Test system: SARS-CoV-2
[1] = improvement of body temperature, SpO2, chest imaging followed by negative conversion of SARS-CoV-2, N = 107

SMILES: NC(=O)c1nc(F)cnc1O [Compound A, 6-fluoro-3-hydroxy-2-pyrazinecarboxamide]
- median time to improvement compared with control group (Compound A group (107 patients) vs control group (49 patients)): shorter by approximately three days
- treatment effect compared with control group (Compound A group vs control group): statistically significantly higher treatment effect
- clinical safety (Compound A group, 107 patients, up to 14 days of treatment): no clinical safety concerns were identified
- Time to improvement in 25% of patients (days) (median) [1]: 7.7 days
- Time to improvement in 50% of patients (days) (median) [1]: 11.8 days
- Time to improvement in 75% of patients (days) (median) [1]: 15.6 days
- Patients with improvement (number of patients of N = 107, standard of care + 1,800 mg BID Day 1, 800 mg BID up to 13 days, oral, mITT): 82

— US20230127703A1, “THERAPEUTIC AGENT FOR CORONAVIRUS INFECTION” (FUJIFILM Toyama Chemical Co., Ltd., priority 2020, published 2023)
